Test results published in PMC4001772 (The Journal of General Physiology, 2014).

Experiments:
Experiment in all cases: inside-out patch clamp of Xenopus oocytes
Assay type in all cases: cell-based
[1] = target: CFTR (Homo sapiens, UniProt P13569, E1371S)
[2] = target: CFTR (Homo sapiens, UniProt P13569, K1250A)
[3] = target: T1, CFTR (Homo sapiens, UniProt P13569)
[4] = target: T1, CFTR; remark: listed apart in the source

CFTR (Homo sapiens, UniProt P13569, E1371S), sequence (P13569 whole entry E1371S): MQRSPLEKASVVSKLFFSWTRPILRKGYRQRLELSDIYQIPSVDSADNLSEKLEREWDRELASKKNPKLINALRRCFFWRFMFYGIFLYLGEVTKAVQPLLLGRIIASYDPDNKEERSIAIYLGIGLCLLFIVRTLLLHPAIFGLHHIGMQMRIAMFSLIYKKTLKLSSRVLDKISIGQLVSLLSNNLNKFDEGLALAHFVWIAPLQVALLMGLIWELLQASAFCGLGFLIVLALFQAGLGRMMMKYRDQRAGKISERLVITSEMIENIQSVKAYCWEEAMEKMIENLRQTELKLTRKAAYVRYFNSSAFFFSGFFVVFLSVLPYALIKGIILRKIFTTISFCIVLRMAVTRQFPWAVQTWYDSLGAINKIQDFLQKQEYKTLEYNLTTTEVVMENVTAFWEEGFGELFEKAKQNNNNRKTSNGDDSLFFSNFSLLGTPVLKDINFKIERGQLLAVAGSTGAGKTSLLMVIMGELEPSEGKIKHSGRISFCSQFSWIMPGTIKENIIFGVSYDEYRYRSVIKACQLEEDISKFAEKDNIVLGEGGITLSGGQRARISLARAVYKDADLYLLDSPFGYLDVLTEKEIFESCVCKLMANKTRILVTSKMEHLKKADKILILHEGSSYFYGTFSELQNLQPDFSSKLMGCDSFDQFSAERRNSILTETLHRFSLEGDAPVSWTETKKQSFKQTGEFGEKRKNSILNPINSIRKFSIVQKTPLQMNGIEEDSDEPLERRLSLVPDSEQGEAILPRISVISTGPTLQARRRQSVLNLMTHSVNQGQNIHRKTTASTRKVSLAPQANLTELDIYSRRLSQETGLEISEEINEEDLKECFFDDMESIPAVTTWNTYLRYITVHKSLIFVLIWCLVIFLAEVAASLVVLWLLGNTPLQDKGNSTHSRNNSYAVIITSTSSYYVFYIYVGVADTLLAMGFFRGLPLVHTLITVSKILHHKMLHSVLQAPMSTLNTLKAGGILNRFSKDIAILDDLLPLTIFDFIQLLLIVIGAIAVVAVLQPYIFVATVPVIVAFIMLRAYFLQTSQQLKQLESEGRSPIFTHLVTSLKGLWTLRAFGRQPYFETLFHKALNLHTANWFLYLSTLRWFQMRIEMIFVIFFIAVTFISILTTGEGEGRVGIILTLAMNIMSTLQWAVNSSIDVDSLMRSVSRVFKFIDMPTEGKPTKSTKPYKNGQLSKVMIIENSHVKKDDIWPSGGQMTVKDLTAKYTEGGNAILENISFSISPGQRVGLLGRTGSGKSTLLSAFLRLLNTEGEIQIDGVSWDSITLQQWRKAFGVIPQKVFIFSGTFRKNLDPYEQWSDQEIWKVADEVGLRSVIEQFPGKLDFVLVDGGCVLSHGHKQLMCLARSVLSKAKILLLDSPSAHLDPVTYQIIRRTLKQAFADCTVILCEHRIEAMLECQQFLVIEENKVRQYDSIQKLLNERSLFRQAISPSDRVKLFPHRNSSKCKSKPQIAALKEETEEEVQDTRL
T1 sequence (P13569 whole entry): as the sequence (P13569 whole entry E1371S) above, with S1371E counted along it
CFTR (Homo sapiens, UniProt P13569, K1250A), sequence (P13569 whole entry K1250A): as the sequence (P13569 whole entry E1371S) above, with K1250A, S1371E counted along it

Ki [1] | EC50 [2] | EC50 [3] | Ki [4] | Structure (SMILES)
~20 µM | ~100 µM | ~90 µM |  | O=C(O)c1cc([N+](=O)[O-])ccc1NCCCc1ccccc1 [NPPB, 5-nitro-2-(3-phenylpropylamino)benzoate]
~8000 µM |  |  | ~15000 µM | O=S(=O)(O)CCCN1CCOCC1 [MOPS]
